# From patent US11957684B2, “Treatment of heavy menstrual bleeding associated with uterine fibroids” (Sumitomo Pharma Switzerland GmbH, priority 2016, dated 2024)
# Values joined by “and” are separate entries in the source; they are usually repeats but may differ in a detail not shown here. Identical values can stand only once. Like-named read-outs stand apart in the source and are kept apart here.
# How the values were obtained:
# [1] = Single dose (1 to 80 mg) and 14-day multiple dose (10 to 40 mg) PK of the Compound 1 formulation; format: in vivo; conditions: for half-life: read-out: mean plasma half-life (T1/2)
# Description: However, in a preferred embodiment, the pharmacokinetics of the Compound 1 formulation are not affected by food intake.
# The mean plasma AUC after a single dose was higher after fasted dosing than after postprandial or preprandial dosing. The mean plasma AUC and mean Cmax with multiple dosing were higher with preprandial than with postprandial dosing.
# [2] = test system: women with uterine fibroids; conditions: in vivo
# Experimental: The primary endpoint was the proportion of patients with a total Pictorial Blood Loss Assessment Chart (PBAC) score 4 of <10 from Week 6 to 12. Secondary endpoints included amenorrhea (PBAC score of 0), myoma and uterine volumes, hemoglobin (Hb), Numerical Rating Scale (NRS) score, Uterine Fibroid Symptom and Quality of Life (UFS-QOL) scores. Serum levels of luteinizing hormone (LH), follicle-stimulating hormone (FSH), estradiol (E2) and progesterone (P) were evaluated as pharmacodynamics endpoints. Safety endpoints included adverse events (AEs), vital signs, weight, 12-lead electrocardiogram (ECG), clinical laboratory tests, bone mineral density (BMD) and recovery of menstruation.
# The bone mineral density (BMD) of the second to fourth lumbar vertebra (L2 to L4) was measured using dual X-ray absorptiometry (DXA).
# FIG. 7B = assay: FIG. 7B
# Description: Table printed on a drawing sheet, FIG. 7B
# The patent's description of the figure: FIGS. 7A-F are tables of plasma PK parameters for Cohorts 8 to 10 in accordance with Example 4.
# First reader's note: Each column is a dose group; per the description these are Day 1 plasma PK values for Cohorts 8 to 10.
# [3] = test system: healthy pre-menopausal women; assay: Example 9: pharmacodynamics, menstruation, hot flash diary, bone resorption markers; format: in vivo, human
# Description: Methods: This was a 6-week phase 1, randomized, open-label, parallel-group, study conducted at 4 sites in the US. […] The first day of dosing occurred on Day 1 to 6 of the menstrual cycle. Hormonal preparations were prohibited for at least 3 months prior to screening. […] Vasomotor symptoms were captured using a daily diary (from screening until follow-up).
# FIG. 11 = assay: FIG. 11
# Description: Table printed on a drawing sheet, FIG. 11
# The patent's description of the figure: FIG. 11 is a table of plasma and urine PK parameters for Cohorts 8 to 10 on Days 1 and 14 of the treatment period in accordance with Example 4.
# First reader's note: Each column is one dose cohort on one treatment day; the Min and Max rows give the range of the median Tmax, and 'nc' is not explained on the sheet.
# [4] = test system: women with uterine fibroids; conditions: in vivo; remark: listed apart in the source
# Description: Secondary endpoints for safety included: Adverse events (AEs), vital signs, weight, standard 12-lead electrocardiogram (ECG), clinical laboratory tests, BMD, biochemical bone metabolism markers (serum N-telopeptide [NTELOP] and bone specific alkaline phosphatase [BAP])
# [5] = human, plasma, po, Day 14 of multiple doses of 10 to 40 mg
smiles,measurement,setting,value
"CONC(=O)Nc1ccc(-c2sc3c(c2CN(C)C)c(=O)n(-c2ccc(OC)nn2)c(=O)n3Cc2c(F)cccc2F)cc1 [Compound 1, N-(4-(1-(2,6-difluorobenzyl)-5-((dimethylamino)methyl)-3-(6-methoxy-3-pyridazinyl)-2,4-dioxo-1,2,3,4-tetrahydrothieno[2,3-d]pyrimidin-6-yl)phenyl)-N′-methoxyurea]",half-life,"[1]; human, plasma, po, single dose 1 to 80 mg",7.1 to 19.8 h
same,Tmax,[1]; [5],1 to 1.5 h
same,half-life,[1]; [5],19.2 to 24.6 h
same,day by which steady state was reached,[1]; multiple dosing,≤ 7 days
same,menstruation recovery period after the last dose,[2],20 to 35 days
same,CL/F (L/hr) | Mean,FIG. 7B,959.7 L/h and 697.6 L/h
same,Tmax (hr) | Median,FIG. 7B,1.480 h
same,No bleeding,[3]; last 28 days of treatment,18 (72.0%) n (%)
same,"No light/normal/heavy bleeding (i.e., no bleeding except spotting)",[3]; last 28 days of treatment,22 (88.0%) n (%)
same,No normal/heavy bleeding,[3]; last 28 days of treatment,23 (92.0%) n (%)
same,subjects reporting no menstrual bleeding (except spotting),[3]; last 28 days of treatment,88.0%
same,subjects reporting no normal or heavy bleeding,[3]; last 28 days of treatment,92.0%
same,average number of hot flash per subject (any severity),[3]; week 6,72.6
same,number of hot flash in subjects reporting severe hot flash,[3]; week 6,63.2
same,proportion of subjects reporting hot flash,[3]; week 6,60%
same,Tmax (hr) | Median,FIG. 11,1.00 h
"CCNC(=O)[C@@H]1CCCN1C(=O)[C@H](CCCNC(=N)N)NC(=O)[C@H](CC(C)C)NC(=O)[C@@H](CC(C)C)NC(=O)[C@H](Cc1ccc(O)cc1)NC(=O)[C@H](CO)NC(=O)[C@H](Cc1c[nH]c2ccccc12)NC(=O)[C@H](Cc1c[nH]cn1)NC(=O)[C@@H]1CCC(=O)N1 [leuprolide acetate, reference compound]",AE leading to discontinuation: Abdominal pain,[4],1(0.7) n(%)
same,AE leading to discontinuation: Arthralgia,[4],1(0.7) n(%)
same,AE leading to discontinuation: Back pain,[4],1(0.7) n(%)
same,AE leading to discontinuation: Blood pressure increased,[4],1(0.7) n(%)
same,AE leading to discontinuation: Depression,[4],0(0.0) n(%)
same,AE leading to discontinuation: Drug eruption,[4],1(0.7) n(%)
same,AE leading to discontinuation: Fatigue,[4],0(0.0) n(%)
same,AE leading to discontinuation: Headache,[4],0(0.0) n(%)
same,AE leading to discontinuation: Hot flush,[4],1(0.7) n(%)
same,AE leading to discontinuation: Hypertension,[4],1(0.7) n(%)
same,AE leading to discontinuation: Liver function test abnormal,[4],1(0.7) n(%)
same,AE leading to discontinuation: Liver function test increased,[4],1(0.7) n(%)
same,AE leading to discontinuation: Malaise,[4],1(0.7) n(%)
same,AE leading to discontinuation: Nausea,[4],1(0.7) n(%)
same,AE leading to discontinuation: Pyrexia,[4],1(0.7) n(%)
same,AE leading to discontinuation: Tenosynovitis,[4],0(0.0) n(%)
same,AE leading to discontinuation: Tenosynovitis stenosans,[4],0(0.0) n(%)
same,AE: Arthralgia,[4],9(6.3) n(%)
same,AE: Bone density decreased,[4],8(5.6) n(%)
same,AE: Bone resorption test abnormal,[4],7(4.9) n(%)
same,AE: Dizziness,[4],7(4.9) n(%)
same,AE: Gamma-glutamyl transferase increased,[4],9(6.3) n(%)
same,AE: Genital haemorrhage,[4],7(4.9) n(%)
same,AE: Headache,[4],14(9.9) n(%)
same,AE: Hot flush,[4],75(52.8) n(%)
same,AE: Hyperhidrosis,[4],15(10.6) n(%)
same,AE: Malaise,[4],5(3.5) n(%)
same,AE: Menorrhagia,[4],22(15.5) n(%)
same,AE: Metrorrhagia,[4],93(65.5) n(%)
same,AE: Resorption bone increased,[4],8(5.6) n(%)
same,AE: Somnolence,[4],6(4.2) n(%)
same,AE: Viral upper respiratory tract infection,[4],46(32.4) n(%)
same,AEs Leading to Study Drug Discontinuation,[4],7(4.9) n(%)
same,ALP > 3 × ULN,[4],0 (0.0) n (%)
same,ALT > 3 × ULN,[4],2 (1.4) n (%)
same,ALT > 5 × ULN,[4],0 (0.0) n (%)
same,ALT and AST > 3 × ULN,[4],0 (0.0) n (%)
same,ALT or AST > 3 × ULN with Tbili > 2 × ULN,[4],0 (0.0) n (%)
same,AST > 3 × ULN,[4],0 (0.0) n (%)
same,AST > 5 × ULN,[4],0 (0.0) n (%)
same,Any Markedly Abnormal LFT,[4],2 (1.4) n (%)
same,SAEs Leading to Study Drug Discontinuation,[4],0(0.0) n(%)
same,Serious Treatment-Emergent AEs,[4],2(1.4) n(%)
same,"Serious Treatment-Emergent AEs, Not Related",[4],2(1.4) n(%)
same,"Serious Treatment-Emergent AEs, Related",[4],0(0.0) n(%)
same,Treatment-Emergent AEs,[4],139(97.9) n(%)
same,"Treatment-Emergent AEs, Not Related",[4],5(3.5) n(%)
same,"Treatment-Emergent AEs, Related",[4],134(94.4) n(%)
